Reference: PMC2771219 (Journal of molecular biology, 2009)

Target: UDP-galactopyranose mutase (UGM) (Klebsiella pneumoniae, UniProt Q48485, R384G)
Assay: fluorescence polarization
Type: binding

UDP-fluorescein
Kd: 0.09 µM
